From patent US8530461B2 (Boehringer Ingelheim International GmbH, priority 2011, dated 2013)
pIC50: −log10 of the molar value.

Biological target: T1, human ACC2 (Homo sapiens, UniProt O00763)
T1 construct: made in house; host or cells: insect cells (baculoviral expression system)
Assay: ACC2 assay, spectrophotometric 384 well assay (NADH-linked, coupled lactate dehydrogenase/pyruvate kinase)
Type: biochemical
Conditions: ACC2 assay; human ACC2 construct lacking 128 N-terminal amino acids; 25° C., 340 nm, 15 minutes; read-out: IC50
Method in brief: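 N-terminally truncated (Δ128) human ACC2 expressed in baculovirus/insect cells; ADP formation coupled via pyruvate kinase/lactate dehydrogenase to NADH consumption, pH 7.5, 25 mM KHCO3, 1% DMSO. Reaction started with NADH, acetyl-CoA and ATP (500 uM f.c.); A340 slope over 15 min at 25° C, IC50 by four-parameter fit after subtracting no-acetyl-CoA controls.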

T1 sequence (O00763 129-2458 limits assumed): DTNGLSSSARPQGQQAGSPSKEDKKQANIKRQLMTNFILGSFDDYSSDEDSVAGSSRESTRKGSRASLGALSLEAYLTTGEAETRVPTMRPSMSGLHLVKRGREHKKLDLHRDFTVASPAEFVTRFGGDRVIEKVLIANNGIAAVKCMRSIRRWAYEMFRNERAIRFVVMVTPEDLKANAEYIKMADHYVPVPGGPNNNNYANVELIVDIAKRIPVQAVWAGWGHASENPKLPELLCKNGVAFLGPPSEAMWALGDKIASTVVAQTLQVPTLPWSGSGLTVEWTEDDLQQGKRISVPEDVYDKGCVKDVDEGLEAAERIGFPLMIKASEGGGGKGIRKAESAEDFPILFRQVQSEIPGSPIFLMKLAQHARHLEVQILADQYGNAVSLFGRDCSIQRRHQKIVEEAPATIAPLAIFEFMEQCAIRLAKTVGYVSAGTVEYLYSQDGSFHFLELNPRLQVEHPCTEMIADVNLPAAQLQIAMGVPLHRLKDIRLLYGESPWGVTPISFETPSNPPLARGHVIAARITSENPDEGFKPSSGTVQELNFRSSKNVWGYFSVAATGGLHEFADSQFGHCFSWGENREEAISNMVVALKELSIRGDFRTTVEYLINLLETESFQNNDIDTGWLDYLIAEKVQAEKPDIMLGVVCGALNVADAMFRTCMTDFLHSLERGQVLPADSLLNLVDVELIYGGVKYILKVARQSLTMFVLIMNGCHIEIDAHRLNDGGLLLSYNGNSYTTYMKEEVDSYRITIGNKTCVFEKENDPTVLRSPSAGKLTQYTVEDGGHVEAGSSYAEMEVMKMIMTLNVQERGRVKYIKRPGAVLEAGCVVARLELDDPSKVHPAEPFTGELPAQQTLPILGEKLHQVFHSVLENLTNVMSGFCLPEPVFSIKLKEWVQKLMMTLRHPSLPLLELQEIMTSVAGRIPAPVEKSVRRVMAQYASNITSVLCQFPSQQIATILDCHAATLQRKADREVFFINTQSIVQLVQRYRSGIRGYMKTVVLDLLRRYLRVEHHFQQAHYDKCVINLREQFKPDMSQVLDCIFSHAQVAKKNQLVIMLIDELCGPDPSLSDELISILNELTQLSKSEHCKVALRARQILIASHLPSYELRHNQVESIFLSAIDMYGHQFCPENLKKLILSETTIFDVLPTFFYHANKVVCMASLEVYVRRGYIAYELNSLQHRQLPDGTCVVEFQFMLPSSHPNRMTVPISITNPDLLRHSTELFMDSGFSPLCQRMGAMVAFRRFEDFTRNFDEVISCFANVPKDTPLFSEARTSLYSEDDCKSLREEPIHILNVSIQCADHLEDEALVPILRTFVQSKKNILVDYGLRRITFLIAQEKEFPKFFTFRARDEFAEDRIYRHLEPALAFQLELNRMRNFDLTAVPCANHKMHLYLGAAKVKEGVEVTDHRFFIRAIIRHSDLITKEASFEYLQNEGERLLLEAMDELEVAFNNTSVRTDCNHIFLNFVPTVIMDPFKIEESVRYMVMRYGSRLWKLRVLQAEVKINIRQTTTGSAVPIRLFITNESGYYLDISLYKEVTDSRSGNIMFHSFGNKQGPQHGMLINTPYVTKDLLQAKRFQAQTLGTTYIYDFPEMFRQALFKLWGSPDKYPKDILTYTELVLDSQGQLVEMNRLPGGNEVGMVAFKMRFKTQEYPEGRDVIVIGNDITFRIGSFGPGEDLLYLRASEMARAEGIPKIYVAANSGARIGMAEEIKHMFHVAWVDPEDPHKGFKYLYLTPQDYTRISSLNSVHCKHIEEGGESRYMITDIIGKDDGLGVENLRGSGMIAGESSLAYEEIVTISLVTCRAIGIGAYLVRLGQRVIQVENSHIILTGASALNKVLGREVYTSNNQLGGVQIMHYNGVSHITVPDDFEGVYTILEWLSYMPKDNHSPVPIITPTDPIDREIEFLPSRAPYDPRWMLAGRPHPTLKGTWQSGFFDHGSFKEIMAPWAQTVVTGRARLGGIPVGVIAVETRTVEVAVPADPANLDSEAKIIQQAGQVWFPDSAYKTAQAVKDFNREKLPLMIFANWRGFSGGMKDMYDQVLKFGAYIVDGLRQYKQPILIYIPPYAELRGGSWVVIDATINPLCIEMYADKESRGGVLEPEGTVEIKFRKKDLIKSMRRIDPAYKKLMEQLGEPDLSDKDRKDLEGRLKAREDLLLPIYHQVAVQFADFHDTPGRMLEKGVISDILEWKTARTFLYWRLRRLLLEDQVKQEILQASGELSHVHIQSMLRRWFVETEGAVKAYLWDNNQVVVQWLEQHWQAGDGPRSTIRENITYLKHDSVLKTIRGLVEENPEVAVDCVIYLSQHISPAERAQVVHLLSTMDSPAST

Compound | pIC50
CC(=O)NC(C)c1ccc(N2CC(Oc3ccnc(OCC(F)F)c3)C2)cc1 (stereo not shown) [Example 11.6] | 6.82
CC(C)COc1cc(OC2CN(c3ccc(C(C)NC(=O)C4CC4)cc3)C2)ccn1 (stereo not shown) [Example 11.7] | 6.64
CC(=O)N[C@@H](C)c1ccc(N2CC(Oc3cccc(N(C)CC(C)(C)O)n3)C2)cc1 [Example 12.1, (S)—N-{1-[4-(3-{6-[(2-Hydroxy-2-methyl-propyl)-methyl-amino]-pyridin-2-yloxy}-azetidin-1-yl)-phenyl]ethyl}-acetamide] | 6.09
CC(=O)N[C@@H](C)c1ccc(N2CC(Oc3cccc(OCC4CC4)n3)C2)cc1 [Example 12.2] | 5.86
CCCOc1cccc(OC2CN(c3ccc([C@H](C)NC(C)=O)cc3)C2)n1 [Example 12.3] | 6.14
CC(=O)N[C@@H](C)c1ccc(N2CC(Oc3cccc(N4CCC(C)CC4)n3)C2)cc1 [Example 12.4] | 6.66
CC(=O)N[C@@H](C)c1ccc(N2CC(Oc3cccc(C)n3)C2)cc1 [Example 12.5] | 6.28
CC(=O)N[C@@H](C)c1ccc(N2CC(Oc3cccc(N(C)C)n3)C2)cc1 [Example 12.6] | 7.05
CC(=O)N[C@@H](C)c1ccc(N2CC(Oc3cccc(OC4CCC4)n3)C2)cc1 [Example 12.7] | 6.51
CC(=O)N[C@@H](C)c1ccc(N2CC(Oc3cccc(OC4CCOC4)n3)C2)cc1 (stereo partly shown) [Example 12.8] | 5.76
CC(=O)N[C@@H](C)c1ccc(N2CC(Oc3cccc(OC(C)C)n3)C2)cc1 [Example 12.9] | 6.31
CC(=O)N[C@@H](C)c1ccc(N2CC(Oc3cccc(C4CC4)n3)C2)cc1 [Example 12.10] | 6.35
CCc1cccc(OC2CN(c3ccc([C@H](C)NC(C)=O)cc3)C2)n1 [Example 12.11] | 6.48
CC(=O)N[C@@H](C)c1ccc(N2CC(Oc3cccc(C(F)F)n3)C2)cc1 [Example 12.12] | 7.00
CC(=O)N[C@@H](C)c1ccc(N2CC(Oc3cccc(C4CCCC4)n3)C2)cc1 [Example 12.13] | 6.74
CC(=O)N[C@@H](C)c1ccc(N2CC(Oc3cccc(C4CCC4)n3)C2)cc1 [Example 12.14] | 6.66
CC(=O)N[C@@H](C)c1ccc(N2CC(Oc3cccc(N4CCOCC4)n3)C2)cc1 [Example 12.15] | 6.08
CCOc1cccc(OC2CN(c3ccc([C@H](C)NC(C)=O)cc3)C2)n1 [Example 12.16] | 6.42
CC(=O)N[C@@H](C)c1ccc(N2CC(Oc3cccc(C(C)(C)C)n3)C2)cc1 [Example 12.17] | 7.30
CC(=O)N[C@@H](C)c1ccc(N2CC(Oc3cccc(OCC4CC4(F)F)n3)C2)cc1 (stereo partly shown) [Example 12.18] | 6.19
CC(=O)N[C@@H](C)c1ccc(N2CC(Oc3cccc(C(C)C)n3)C2)cc1 [Example 12.19] | 6.64
CC(=O)N[C@@H](C)c1ccc(N2CC(Oc3ccnc(N4CCOCC4)n3)C2)cc1 [Example 13.1, (S)—N-(1-{4-[3-(2-Morpholin-4-yl-pyrimidin-4-yloxy)-azetidin-1-yl]-phenyl}-ethyl)-acetamide] | 6.46
CC(=O)N[C@@H](C)c1ccc(N2CC(Oc3ccnc(N4CCCC4)n3)C2)cc1 [Example 13.2, (S)—N-(1-{4-[3-(2-Pyrrolidin-1-yl-pyrimidin-4-yloxy)-azetidin-1-yl]-phenyl}-ethyl)-acetamide] | 7.22
COc1cccc(OC2CN(c3ccc([C@H](C)NC(C)=O)cc3)C2)n1 [Example 14.1, (S)—N-(1-{4-[3-(6-Methoxy-pyridin-2-yloxy)-azetidin-1-yl]-phenyl}-ethyl)-acetamide] | 6.42
CC(=O)N[C@@H](C)c1ccc(N2CC(Oc3cccc(C(F)(F)F)n3)C2)cc1 [Example 14.2] | 7.22
CC(=O)N[C@@H](C)c1ccc(N2CC(Oc3ccnc(C)n3)C2)cc1 [Example 14.3, (S)—N-(1-{4-[3-(2-Methyl-pyrimidin-4-yloxy)-azetidin-1-yl]-phenyl}-ethyl)-acetamide] | 6.01
CC(=O)NC(C)(C)c1ccc(N2CC(Oc3ccc(OCC4CC4)cc3)C2)cc1 [Example 15.1, N-(1-{4-[3-(4-Cyclopropylmethoxy-phenoxy)-azetidin-1-yl]-phenyl}-1-methyl-ethyl)-acetamide] | 6.04
COCCOc1ccc(OC2CN(c3ccc([C@H](C)NC(=O)c4sc(NC(C)=O)nc4C)cc3)C2)cc1 [Example 16.1, (S)-2-Acetylamino-4-methyl-thiazole-5-carboxylic acid [1-(4-{3-[4-(2-methoxy-ethoxy)-phenoxy]-azetidin-1-yl}-phenyl)-ethyl]-amide] | 6.89
